Source: paper PMC12413448, “Atomic resolution structures of the methane-activating enzyme in anaerobic methanotrophy reveal extensive post-translational modifications” (Nature Communications, 2025)

Tests used:
[1] = target: T1, MCR from ANME-2d^O (Methyl-Coenzyme M Reductase) (Candidatus Methanoperedens sp. BLZ2, UniProt Z9I9A7LEW2+Z9NDC8PKK5+Z9T835AYK6); experiment: X-ray crystal structure, […] Å; assay type: binding; settings: as isolated, trapped in active site; reduced thiol
T1 construct: native purification from bioreactor enrichment; (alpha beta gamma)2 dimer of heterotrimers; seven native PTMs including 3(S)-methylhistidine 159 on gamma; full length
T1 sequence (Z9T835AYK6 1-562): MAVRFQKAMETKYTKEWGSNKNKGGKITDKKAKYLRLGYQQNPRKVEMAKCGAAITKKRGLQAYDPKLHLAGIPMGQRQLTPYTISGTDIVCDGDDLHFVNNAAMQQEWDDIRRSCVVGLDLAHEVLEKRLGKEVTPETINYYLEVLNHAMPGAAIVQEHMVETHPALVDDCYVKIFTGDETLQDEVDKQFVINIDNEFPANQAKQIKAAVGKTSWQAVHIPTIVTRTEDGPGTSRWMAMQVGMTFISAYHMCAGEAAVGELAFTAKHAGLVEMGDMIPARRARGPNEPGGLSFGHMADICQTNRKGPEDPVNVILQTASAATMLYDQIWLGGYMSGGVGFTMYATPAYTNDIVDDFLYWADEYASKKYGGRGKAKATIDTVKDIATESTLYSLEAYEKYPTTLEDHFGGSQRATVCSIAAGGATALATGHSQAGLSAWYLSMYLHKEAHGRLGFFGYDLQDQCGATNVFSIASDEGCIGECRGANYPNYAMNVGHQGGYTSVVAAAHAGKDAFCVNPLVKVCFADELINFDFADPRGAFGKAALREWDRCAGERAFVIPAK
T1 sequence (Z9NDC8PKK5 1-434): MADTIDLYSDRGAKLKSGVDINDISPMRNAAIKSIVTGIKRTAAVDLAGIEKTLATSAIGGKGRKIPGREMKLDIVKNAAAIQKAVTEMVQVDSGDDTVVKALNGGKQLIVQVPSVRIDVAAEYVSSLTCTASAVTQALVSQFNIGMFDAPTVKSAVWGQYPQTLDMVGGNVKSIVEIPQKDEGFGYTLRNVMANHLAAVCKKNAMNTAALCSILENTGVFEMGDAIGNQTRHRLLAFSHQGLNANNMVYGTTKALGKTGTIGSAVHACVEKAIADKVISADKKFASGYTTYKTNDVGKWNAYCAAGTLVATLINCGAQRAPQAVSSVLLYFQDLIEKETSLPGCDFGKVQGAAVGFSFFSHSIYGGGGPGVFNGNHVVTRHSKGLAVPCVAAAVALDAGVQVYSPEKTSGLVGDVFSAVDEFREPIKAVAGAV
T1 sequence (Z9I9A7LEW2 1-249): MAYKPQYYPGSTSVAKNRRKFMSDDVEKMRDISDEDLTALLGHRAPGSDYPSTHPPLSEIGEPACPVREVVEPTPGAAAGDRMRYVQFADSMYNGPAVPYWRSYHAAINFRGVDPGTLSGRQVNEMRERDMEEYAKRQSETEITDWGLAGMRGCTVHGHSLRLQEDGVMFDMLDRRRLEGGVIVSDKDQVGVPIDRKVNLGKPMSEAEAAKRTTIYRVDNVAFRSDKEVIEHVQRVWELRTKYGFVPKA

[2] = target: T2, MCR from ANME-2d^V (Methyl-Coenzyme M Reductase) (Candidatus Methanoperedens sp., UniProt Z9LNO2W1Q3+Z9MSE7NHP1+Z9ZZ61DSW2); experiment: X-ray crystal structure, […] Å; settings: as isolated; mixture of ligands modelled in active site
T2 sequence (Z9MSE7NHP1 1-566): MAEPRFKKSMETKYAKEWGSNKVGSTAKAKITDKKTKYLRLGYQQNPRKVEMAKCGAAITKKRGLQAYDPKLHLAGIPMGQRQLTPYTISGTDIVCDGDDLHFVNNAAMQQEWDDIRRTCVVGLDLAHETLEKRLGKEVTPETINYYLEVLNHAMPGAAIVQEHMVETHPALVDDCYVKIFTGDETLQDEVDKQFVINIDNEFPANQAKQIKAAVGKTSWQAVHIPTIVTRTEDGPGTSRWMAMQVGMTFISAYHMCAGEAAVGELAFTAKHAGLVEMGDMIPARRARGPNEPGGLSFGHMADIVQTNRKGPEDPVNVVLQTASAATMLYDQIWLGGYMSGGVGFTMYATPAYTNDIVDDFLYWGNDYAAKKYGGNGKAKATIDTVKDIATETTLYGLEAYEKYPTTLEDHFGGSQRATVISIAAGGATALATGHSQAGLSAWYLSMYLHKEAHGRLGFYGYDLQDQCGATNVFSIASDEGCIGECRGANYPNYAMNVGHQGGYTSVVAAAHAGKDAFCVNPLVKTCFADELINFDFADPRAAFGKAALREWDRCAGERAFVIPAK
T2 sequence (Z9ZZ61DSW2 1-434): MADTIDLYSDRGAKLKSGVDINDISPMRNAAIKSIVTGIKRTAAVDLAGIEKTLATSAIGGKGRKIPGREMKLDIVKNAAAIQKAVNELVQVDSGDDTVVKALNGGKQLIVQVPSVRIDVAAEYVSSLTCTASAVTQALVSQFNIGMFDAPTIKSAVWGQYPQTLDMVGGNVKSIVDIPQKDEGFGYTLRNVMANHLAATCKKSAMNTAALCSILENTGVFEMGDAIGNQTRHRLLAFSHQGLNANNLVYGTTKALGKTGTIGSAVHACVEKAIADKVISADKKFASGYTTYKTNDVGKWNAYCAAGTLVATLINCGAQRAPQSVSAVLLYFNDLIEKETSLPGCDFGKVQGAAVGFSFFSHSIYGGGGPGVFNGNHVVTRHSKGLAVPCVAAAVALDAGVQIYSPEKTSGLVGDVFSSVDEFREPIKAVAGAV
T2 sequence (Z9LNO2W1Q3 1-249): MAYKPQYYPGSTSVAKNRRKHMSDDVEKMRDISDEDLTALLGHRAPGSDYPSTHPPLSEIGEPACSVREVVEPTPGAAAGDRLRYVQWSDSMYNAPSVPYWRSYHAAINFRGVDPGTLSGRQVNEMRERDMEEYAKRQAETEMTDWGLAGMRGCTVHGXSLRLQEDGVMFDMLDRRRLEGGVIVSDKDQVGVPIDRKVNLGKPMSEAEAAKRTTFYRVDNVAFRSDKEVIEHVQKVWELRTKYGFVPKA

| SMILES | X-ray crystal structure, 0.98 Å [1] | X-ray crystal structure, 0.98 Å [2] |
| --- | --- | --- |
| C[C@@H](OP(=O)(O)O)[C@H](NC(=O)CCCCCCS)C(=O)O [CoB-SH] | MCRs from ANME-2c and ANME-2d^O contain reduced coenzymes trapped in the active site | – |
| O=S(=O)(O)CCS [CoM-SH] | MCRs from ANME-2c and ANME-2d^O contain reduced coenzymes trapped in the active site | optimal when the model included CoM-SH, CoB-SH, the heterodisulfide, and methyl-CoM |
| C[C@@H](OP(=O)(O)O)[C@H](NC(=O)CCCCCCSSCCS(=O)(=O)O)C(=O)O [heterodisulfide] | – | optimal when the model included CoM-SH, CoB-SH, the heterodisulfide, and methyl-CoM |
